PMC11432454, “An Ingenane-Type Diterpene from Euphorbia kansui Promoted Cell Apoptosis and Macrophage Polarization via the Regulation of PKC Signaling Pathways” (International Journal of Molecular Sciences, 2024)
Read-outs that look alike come from different tables or passages of the source.

Assays:
HepG2 cells [1] = experiment: MTT assay, cell viability of HepG2 cells; type: cell-based; conditions: Homo sapiens
Experimental: (§1) 8 × 10^4 cells/well were incubated in 96T wells for 24 h, and the cells were treated with a drug-containing medium for a specified time. Cells were added 20 μL 0.5% MTT (Sigma, USA) to each well, continued to incubate at 37 °C for 3.5 h, then the medium was discarded and 150 μL of DMSO was added to each well to dissolve the purple formazan. The cells were shaken for 15 min at room temperature and read at 490 nm. Cell viability (%) = ([…])/(ODcontrol − ODblank) × 100%. IC50 (half maximal inhibitory concentration) was calculated by SPSS 27.0 software.

[2] = tested on: NO production in LPS-stimulated RAW264.7 cells; experiment: cells; type: cell-based; conditions: Mus musculus
Experimental: (§2) Mouse macrophage cell line RAW264.7 was incubated in a DMEM medium (Gibco, Carlsabad, CA, USA) supplemented with 10% fetal bovine serum (FBS, Gibco), 10,000 U/mL penicillin, and 10,000 μg/mL streptomycin. RAW264.7 cells were treated with 1 μg/mL Lipopolysaccharide (LPS, Sigma, Saint Louis, MO, USA, 12181202) to promote the polarization of macrophages towards M1 or 20 ng/mL interleukin 4 (IL-4, Beyotime, Shanghai, China) to promote the polarization of macrophages towards M2.
(§3) The isolates were evaluated for their inhibitory effect on NO production in LPS-induced RAW264.7 cells. The iNOS inhibitor (NG-monnomycin-L-arginine, L-NMMA) was selected as the positive control. NO was evaluated by absorbance-based detection on nitrite accumulated in the culture medium. The levels of cytokines (IL-1β, IFN-γ, IL-10, TNF-α, and IL-6) in the cell supernatant were determined using an ELISA kit (Novus Biologicals, Centennial, CO, USA) according to the manufacturer’s instructions. The absorbance was read at OD450nm/OD540nm in SpectraMax340PC microplate spectrophotometer (Molecular Devices, San Jose, CA, USA).

[3] = MTT assay, cell viability of RAW264.7 cells; type: cell-based; conditions: mouse, RAW264.7 macrophage cells; half inhibitory of RAW264.7 cells, cell survival, n = 3
Experimental: as §2, §1

[4] = tested on: PKC δ, ERK, and NF-κB in LPS-stimulated RAW264.7 cells; experiment: Western blotting of PKC δ, ERK, NF-κB in LPS-stimulated RAW264.7 cells; type: cell-based, mouse; conditions: for level of PKC δ protein / phosphorylation of PKC δ, ERK, and NF-κB: LPS-stimulated RAW264.7, 24 h; for phosphorylation of PKC δ, ERK, and NF-κB: compared to the LPS group, BIS 150 nmol·L^−1
Experimental: as §2
(§4) Protein samples were prepared using a RIPA lysis buffer. The concentration of the protein was analyzed using nucleic acid and protein microanalyzer (Molecular Devices, San Jose, CA, USA). SDS-PAGE gel electrophoresis was performed to separate the proteins, which then were electro-transferred onto a PVDF membrane. The membranes were blocked with 5% non-fat milk for 2 h and incubated with primary antibodies and secondary antibodies. The protein bands were detected by the ECL and were exposed to the TANON gel imager (Shanghai, China). The results were analyzed by Image J 180 software.
In order to investigate the effects of PKC activation on the effects of drug treatment, 150 nmoL/L bisindolylmaleimide (BIS) was used. BIS (Beyotime, Shanghai, China) is a potent inhibitor of PKC α/β/γ and PKC δ/ε. This agent was stored at −80 °C in DMSO and cells were pre-incubated with the inhibitor for 4 h prior to being treated with compound A.

HepG2 cells [5] = experiment: Annexin V/PI flow cytometry, apoptosis of HepG2 cells; type: cell-based, human; conditions: 12.5 μmol·L^−1 or 25 μmol·L^−1
Experimental: (§5) Cells with the relevant surface antibodies were incubated at 4 °C for 30 min without light. The stained cells were incubated with Annexin V/PI kits from BD. The experiment was conducted according to the instructions. Data were analyzed on FlowJo V10 software.

[6] = tested on: iNOS, COX2, NO, IL-1β, IL-6 in LPS-stimulated RAW264.7 cells; experiment: Inflammatory mediators in LPS-stimulated RAW264.7 cells (Western blot, ELISA, immunofluorescence); type: cell-based, mouse; conditions: LPS (1 μg·mL^−1)-stimulated RAW264.7, 10 and 5 μmol·L^−1, 24 h
Experimental: as §2, with “M2. […]” for “M2.”
as §3, with “The iNOS inhibitor (NG-monnomycin-L-arginine, L-NMMA) was selected as the positive control.” left out
Protein samples were prepared using a RIPA lysis buffer. The concentration of the protein was analyzed using nucleic acid and protein microanalyzer (Molecular Devices, San Jose, CA, USA). […] The protein bands were detected by the ECL and were exposed to the TANON gel imager (Shanghai, China). The results were analyzed by Image J 180 software.

[7] = tested on: Bax, cleaved caspase 3, cleaved caspase 8 in HepG2 cells; experiment: Western blotting of apoptosis-related proteins in HepG2 cells; type: cell-based, human; conditions: 12.5 or 25 μmol·L^−1
Experimental: as §4

[8] = tested on: HepG2 and RAW264.7 cell co-cultivations; experiment: Annexin V/PI flow cytometry, HepG2 and RAW264.7 co-cultivation; type: cell-based; conditions: 48 h, compared with the HepG2 cell group
Experimental: as §5

MCF-7 cells = experiment: MTT assay, cell viability of MCF-7 cells; type: cell-based; conditions: Homo sapiens, MCF7, read-out: MCF-7 IC50
Experimental: as §1

[9] = tested on: PKC δ and ERK in HepG2 cells; experiment: Western blotting of PKC δ and ERK expression and phosphorylation in HepG2 cells; type: cell-based, human
Experimental: as §4

A549 cells = experiment: MTT assay, cell viability of A549 cells; type: cell-based; conditions: Homo sapiens, A549, read-out: A549 IC50
Experimental: as §1

[10] = tested on: PKC δ, ERK, STAT3, STAT6, ARG-1, CD163, TGF-β, CD206 in IL-4-stimulated RAW264.7 cells; experiment: M2 polarization markers in IL-4-stimulated RAW264.7 cells (Western blot, immunofluorescence); type: cell-based, mouse
Experimental: as §2
RAW264.7 cells were fixed with 500 μL/well 4% paraformaldehyde for 20 min at room temperature, washed with 1 mL/well PBS five times, then incubated with anti-iNOS, anti-COX-2, or anti-CD206 antibodies at 4 °C overnight, separately. The cells were washed with 1 mL/well PBS five times, then treated with the secondary antibody (FITC-Goat anti-rabbit IgG antibody, 1:200-fold dilution) and DPAI (100 μL/well). […] The stained images were captured under a laser scanning confocal microscope (Nikon A1 AIR MP+, Tokyo, Japan).
as §4

[11] = tested on: Bax, cleaved caspase 3 and 8, IL-6, ARG-1, CD206, COX2 in HepG2 and RAW264.7 cell co-cultivations; experiment: Western blotting and ELISA in HepG2 and RAW264.7 co-cultivation; type: cell-based
Experimental: as §3, §4

[12] = IL-4 (20 ng/mL)-stimulated RAW264.7, 10 μmol·L^−1, 0–60 min
[13] = compared with HepG2 cell group and co-cultivation group

Q: Which IC50 (HepG2 cells [1]; HepG2, cell viability, MTT, n = 3, read-out: HepG2 IC50) does the source give for `COc1cccc2c1C(=O)c1c(O)c3c(c(O)c1C2=O)C[C@@](O)(C(=O)CO)C[C@@H]3O[C@H]1C[C@H](N)[C@H](O)[C@H](C)O1` [Adr, adriamycin, reference compound] here?
A: 4.37 ± 1.21 µM

Q: For `[H]/N=C(/NC)NCCC[C@H](N)C(=O)O` [l-NMMA, NG-monnomycin-l-arginine, reference compound], which IC50 ([2]; RAW264.7, read-out: RAW264.7 IC50 (inhibition of nitric oxide production)) is on record?
A: 21.8 ± 3.21 µM

Q: What about the CC50 [3] of the same molecule?
A: > 50 µM

Q: What does the source list for “bisindolylmaleimide [reference compound]”?
A: level of PKC δ protein [4]: did not; phosphorylation of PKC δ, ERK, and NF-κB [4]: significantly reduced

Q: With `CCCCCCCCCCCC(=O)OC12CC(C)C34C=C(C)C(OC(=O)C(C)C(C)C)C3(O)C(O)C(CO)=CC(C4=O)C1C2(C)C` (centres unmarked) [Compound A, 13-hydroxyingenol-3-(2,3-dimethylbutanoate)-13-dodecanoate] as the molecule, how does the “apoptosis in HepG2 cells” value (HepG2 cells [5]) read?
A: significantly induced apoptosis

Q: And the COX2 expression [6]?
A: increased

Q: What about the “expression of iNOS and production of cytokines (NO, IL-1β, IL-6)” value [6] of the same molecule?
A: decrease

Q: What about the “expression of Bax, cleaved caspase 3, and cleaved caspase 8” value [7] of the same molecule?
A: increased

Q: What about the IC50 ([2]; LPS-stimulated RAW264.7 cells, n = 3, read-out: RAW264.7 IC50 (inhibition of nitric oxide production)) of the same molecule?
A: 0.57 ± 0.07 µM

Q: And the “time of highest point of phosphorylation of PKC δ, ERK, and NF-κB” value ([4]; LPS (1 μg·mL^−1)-stimulated RAW264.7, compound A 10 μmol·L^−1, 0-60 min)?
A: 20 to 30 min

Q: And the “level of PKC δ protein” value [4]?
A: decreased

Q: What about the “phosphorylation of PKC δ, ERK, and NF-κB” value [4] of the same molecule?
A: significantly reduced

Q: What about the apoptosis rates [8] of the same molecule?
A: upregulated

Q: What about the IC50 (MCF-7 cells) of the same molecule?
A: 27.1 ± 3.34 µM

Q: What about the CC50 [3] of the same molecule?
A: 20.3 ± 3.62 µM

Q: And the “time of highest level of phosphorylation of PKC δ” value ([9]; treated 0, 10, 20, 40, 60 min)?
A: 10 to 20 min

Q: And the “expression of PKC δ” value ([9]; versus control group)?
A: decreased

Q: And the “phosphorylation of PKC δ (p-PKC δ) and ERK (p-ERK)” value ([9]; versus control group)?
A: downregulated

Q: What about the IC50 (HepG2 cells [1]; HepG2, read-out: HepG2 IC50) of the same molecule?
A: 21 ± 4.53 µM

Q: What about the IC50 (A549 cells) of the same molecule?
A: 22 ± 5.01 µM

Q: What about the “PKC δ and ERK activation” value [10, 12] of the same molecule?
A: promote

Q: What about the STAT6 phosphorylation [10, 12] of the same molecule?
A: inhibited

Q: What about the “activation of STAT3 and STAT6” value ([10]; IL-4-stimulated RAW264.7, co-treatment 24 h) of the same molecule?
A: inhibited

Q: And the “expression of ARG-1, CD163, TGF-β, and CD206” value ([10]; IL-4-stimulated RAW264.7 cells)?
A: downregulated

Q: What about the “level of Bax, and cleaved caspase 3 and 8” value ([11]; 10 μmol·L^−1, 48 h) of the same molecule?
A: significantly increase

Q: And the COX2 expression [11, 13]?
A: increased

Q: What about the “expression of ARG-1 and CD206” value [11, 13] of the same molecule?
A: decreased

Q: And the “level of IL-6” value [11, 13]?
A: decreased
